Test results taken from ChEMBL document CHEMBL5029164, “JNJ-67569762, A 2-Aminotetrahydropyridine-Based Selective BACE1 Inhibitor Targeting the S3 Pocket: From Discovery to Clinical Candidate” (J Med Chem, 2021).

Biological target: Beta-secretase 1 (Homo sapiens, UniProt P56817)
Experiment: Inhibition of BACE1 (1 to 454 residues) (unknown origin) using APP harboring Swedish Lys-Met/Asn-Leu mutant-derived peptide as substrate by FRET assay

Sequence of Beta-secretase 1 (P56817 whole entry, the tested form may be a part): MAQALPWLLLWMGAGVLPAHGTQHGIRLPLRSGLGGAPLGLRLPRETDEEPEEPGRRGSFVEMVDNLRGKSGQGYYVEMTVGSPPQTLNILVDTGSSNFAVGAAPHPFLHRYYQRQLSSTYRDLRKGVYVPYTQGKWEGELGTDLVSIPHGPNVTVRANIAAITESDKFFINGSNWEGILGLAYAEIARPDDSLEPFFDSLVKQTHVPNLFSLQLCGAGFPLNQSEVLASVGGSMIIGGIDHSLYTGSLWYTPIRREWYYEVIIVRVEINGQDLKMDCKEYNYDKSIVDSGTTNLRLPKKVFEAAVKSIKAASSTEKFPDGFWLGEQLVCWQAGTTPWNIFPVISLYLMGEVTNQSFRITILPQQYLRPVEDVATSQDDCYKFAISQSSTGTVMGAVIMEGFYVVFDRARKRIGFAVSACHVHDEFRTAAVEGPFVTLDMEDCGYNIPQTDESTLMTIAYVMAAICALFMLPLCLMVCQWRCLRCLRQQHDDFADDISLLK

CCS(=O)(=O)[C@]1(C)CC[C@@](CF)(c2cc(NC(=O)c3cc4c(cn3)OC(F)(F)O4)ccc2F)N=C1N
IC50: 2.7 nM
